# Source: US20250059164A1, “IRAK DEGRADERS AND USES THEREOF” (Kymera Therapeutics, Inc., priority 2023, published 2025)
# Target: T1, IRAK4 (Homo sapiens, UniProt Q9NWZ3)
# T1 construct: endogenous in cells; host or cells: OCI-LY10
# T1 sequence (Q9NWZ3 1-460): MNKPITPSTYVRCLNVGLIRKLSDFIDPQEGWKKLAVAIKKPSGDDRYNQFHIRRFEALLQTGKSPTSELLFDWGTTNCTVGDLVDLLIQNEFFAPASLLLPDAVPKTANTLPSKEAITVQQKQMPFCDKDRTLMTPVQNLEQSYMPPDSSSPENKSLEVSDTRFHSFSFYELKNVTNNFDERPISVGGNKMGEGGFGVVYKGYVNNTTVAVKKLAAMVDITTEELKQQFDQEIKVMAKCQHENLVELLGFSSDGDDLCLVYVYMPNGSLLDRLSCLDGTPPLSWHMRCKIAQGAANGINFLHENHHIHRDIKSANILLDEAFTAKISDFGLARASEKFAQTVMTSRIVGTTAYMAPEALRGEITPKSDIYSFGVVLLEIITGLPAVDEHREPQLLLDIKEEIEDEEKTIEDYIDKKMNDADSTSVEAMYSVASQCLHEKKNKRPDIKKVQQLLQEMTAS
# Assay: IRAK4 MSD degradation in OCI-LY10
# Type: cell-based
# Conditions: OCI-LY10 cells, 24 hrs, Meso Scale Discovery
# Description: Degradation of IRAK4 in OCI-LY10 was quantitatively measured using Meso Scale Discovery technology. […] Compounds were then added to the assay plates with a final top concentration of 1 to 10 μM in a 1:3 dilution series with total of 8 doses. The assay plates were then incubated for 4 to 24 hours at 37° C. under 5% CO2. […] To prepare MSD assay plates (Meso Scale Discovery Catalog number L15XA-3), the plates were coated with 2 μg/mL capture antibody (mouse Anti-IRAK4 antibody [2H9], ab119942) in PBS, at 40 μL/well. […] Cell lysates were then added to MSD assay plates and the plates were incubated at room temperature for 1 hour. The plates were then washed 3 times with 150 μL/well TBST buffer and 25 μL/well primary detection antibody (rabbit Anti-IRAK4 antibody [Y279], from Abcam. Catalog number ab32511, 1 μg/mL). The assay plates were then incubated at room temperature for 1 hour, washed 3 times with 150 μL/well TBST buffer and 25 μL/well secondary detection antibody, SULFO-TAG anti-rabbit antibody were added (anti-rabbit antibody from Meso Scale Discovery, Catalog number R32AB-1, 1 μg/mL). The assay plates were then incubated at room temperature for 1 hour, washed 3 times with 150 μL/well TBST buffer, and 150 μL/well MSD reading buffer (Meso Scale Discovery catalog number R92TC-2) was added. The plates were then analyzed by a MSD reader (Meso Scale Discovery, Model Quick Plex SQ 120). The data was then analyzed by software Prism 7.0 from GraphPad and the dose-depended IRAK4 degradation were fit using a three-parameter logistic equation to calculate DC50.
# The letter codes for IRAK4 DC50 include: A (<0.01 μM); B (0.01 to <0.1 μM); C (0.1 to 0.2 μM); D (>0.2 μM) and E (not tested).
row,Compound,DC50 [nM]
1,O=C1CCN(c2cncc3c(N4CC(CO[C@@H]5CCN(C[C@H]6CC[C@H](n7cc(NC(=O)c8cnn9ccc(N%10C[C@H]%11C[C@@H]%10CO%11)nc89)c(C(F)F)n7)CC6)C[C@@H]5F)C4)cccc23)C(=O)N1 [I-120],< 10
2,CN(C[C@H]1CC[C@H](c2nc3cc(C(C)(C)O)c(NC(=O)c4cccc(C(F)(F)F)n4)cc3o2)CC1)[C@H]1CCN(c2cccc3c2n(C)c(=O)n3C2CCC(=O)NC2=O)C[C@@H]1F (some centres unmarked) [I-138],< 10
3,Cc1nn(C2CCC(=O)NC2=O)c2cccc(N3CC(CO[C@@H]4CCN(C[C@H]5CC[C@H](n6cc(NC(=O)c7cnn8ccc(N9C[C@H]%10C[C@@H]9CO%10)nc78)c(C(F)F)n6)CC5)C[C@@H]4F)C3)c12 (some centres unmarked) [I-56],< 10
4,O=C1CCC(Nc2cccc(N3CC(CN4CCN(C[C@H]5CC[C@H](n6cc(NC(=O)c7cnn8ccc(N9C[C@H]%10C[C@@H]9CO%10)nc78)c(C(F)F)n6)CC5)CC4)C3)c2)C(=O)N1 (some centres unmarked) [I-13],10 to 100
5,Cn1c(=O)n(C2CCC(=O)NC2=O)c2cccc(C#CCN3CCN(C[C@H]4CC[C@H](n5cc(NC(=O)c6cnn7ccc(N8C[C@H]9C[C@@H]8CO9)nc67)c(C(F)F)n5)CC4)[C@H](C(F)(F)F)C3)c21 (some centres unmarked) [I-345],10 to 100
6,CC(C)(O)c1cc2nn([C@H]3CC[C@H](CN4CCN(c5cccc(NC6CCC(=O)NC6=O)c5)CC4)CC3)cc2cc1NC(=O)c1cccc(C(F)(F)F)n1 (some centres unmarked) [I-77],10 to 100
7,COc1cc2nn([C@H]3CC[C@H](CN4CCC5(CC4)CCN(c4cccc6c4c(C)nn6C4CCC(=O)NC4=O)CC5)CC3)cc2cc1NC(=O)c1cncc(C#N)c1 (some centres unmarked) [I-49],10 to 100
8,O=C1CCC(Nc2ccc(N3CC(CN4CCN(C[C@H]5CC[C@H](n6cc(NC(=O)c7cnn8ccc(N9C[C@H]%10C[C@@H]9CO%10)nc78)c(C(F)F)n6)CC5)CC4)C3)cc2)C(=O)N1 (some centres unmarked) [I-61],10 to 100
9,COc1cc2nn([C@H]3CC[C@H](CN4CCN(c5cccc6c5c(C)nn6C5CCC(=O)NC5=O)CC4)CC3)cc2cc1NC(=O)c1cncc(C#N)c1 (some centres unmarked) [I-48],10 to 100
10,CC(C)(O)c1cc2nn([C@H]3CC[C@H](CN4CCN(c5ccc(C6CCC(=O)NC6=O)c(Cl)c5)CC4)CC3)cc2cc1NC(=O)c1cccc(C(F)(F)F)n1 (some centres unmarked) [I-76],< 10
11,"COc1cc2nc([C@H]3CC[C@H](CN4CC[C@H](c5cccc6c5n(C)c(=O)n6C5CCC(=O)NC5=O)[C@@H](F)C4)CC3)sc2cc1NC(=O)c1cccc(C(F)(F)F)n1 (single isomer, unassigned) [I-79]",> 200
12,Cc1nn([C@@H]2CCC(=O)NC2=O)c2cccc(N3CC(CN4CCN(C[C@H]5CC[C@H](n6cc(NC(=O)c7cnn8ccc(N9C[C@H]%10C[C@@H]9CO%10)nc78)c(C(F)F)n6)CC5)CC4)C3)c12 [I-87],< 10
13,O=C1CCN(c2cncc3c(N4CC(O)(CN5CCN(C[C@H]6CC[C@H](n7cc(NC(=O)c8cnn9ccc(N%10C[C@H]%11C[C@@H]%10CO%11)nc89)c(C(F)F)n7)CC6)CC5)C4)cccc23)C(=O)N1 [I-67],< 10
14,O=C1CCC(Nc2cccc(N3CC(CO[C@H]4CCN(C[C@H]5CC[C@H](n6cc(NC(=O)c7cnn8ccc(N9C[C@H]%10C[C@@H]9CO%10)nc78)c(C(F)F)n6)CC5)C[C@@H]4F)C3)c2)C(=O)N1 (some centres unmarked) [I-1],100 to 200
15,Cn1c(=O)n(C2CCC(=O)NC2=O)c2cccc([C@H]3CCN(C[C@H]4CC[C@H](c5nc6cc(C(C)(C)O)c(NC(=O)c7cccc(C(F)(F)F)n7)cc6s5)CC4)C[C@@H]3F)c21 (some centres unmarked) [I-103],< 10
16,"COc1ccc2c(c1N1CC[C@H](N(C)C[C@H]3CC[C@H](n4cc(NC(=O)c5cnn6cccnc56)c(C(F)F)n4)CC3)[C@@H](F)C1)n(C)c(=O)n2C1CCC(=O)NC1=O (single isomer, unassigned) [I-146]",< 10
17,CN1C(=O)CCC(n2c(=O)n(C)c3c(N4CC(N5CCN([C@H]6CC[C@H](n7cc(NC(=O)c8cnn9ccc(N%10C[C@H]%11C[C@@H]%10CO%11)nc89)c(C(F)F)n7)CC6)CC5)C4)c(F)ccc32)C1=O (some centres unmarked) [I-3],> 200
18,O=C1CCC(Nc2cccc(N3CCN(C[C@H]4CC[C@H](n5cc6cc(NC(=O)c7cccc(C(F)(F)F)n7)ncc6n5)CC4)CC3)c2)C(=O)N1 (some centres unmarked) [I-15],> 200
19,"CN(C[C@H]1CC[C@H](c2nc3cc(C(C)(C)O)c(NC(=O)c4cncc(C(F)(F)F)n4)cc3s2)CC1)[C@@H]1CCN(c2cccc3c2n(C)c(=O)n3C2CCC(=O)NC2=O)C[C@H]1F (single isomer, unassigned) [I-300]",< 10
20,"CN(C[C@H]1CC[C@H](c2nc3cc(C(C)(C)O)c(NC(=O)c4cncc(C(F)(F)F)n4)cc3o2)CC1)[C@H]1CCN(c2cccc3c2n(C)c(=O)n3C2CCC(=O)NC2=O)C[C@H]1F (single isomer, unassigned) [I-299]",< 10
21,O=C1CCC(c2ccc(N3CC(N4CCN([C@H]5CC[C@H](n6cc(NC(=O)c7cnn8ccc(N9CCCC9)nc78)c(C(F)F)n6)CC5)CC4)C3)cc2Cl)C(=O)N1 (some centres unmarked) [I-14],< 10
22,"COc1cc2nc([C@H]3CC[C@H](CN(C)[C@@H]4CCN(c5cccc6c5n(C)c(=O)n6C5CCC(=O)NC5=O)C[C@H]4F)CC3)sc2cc1NC(=O)c1cccc(C(F)(F)F)n1 (single isomer, unassigned) [I-98]",10 to 100
23,"CN(C[C@H]1CC[C@H](n2cc(NC(=O)c3cnn4ccc(N5C[C@H]6C[C@@H]5CO6)nc34)c(C(F)F)n2)CC1)[C@H]1CCN(c2cccc3c2n(C)c(=O)n3[C@@H]2CCC(=O)NC2=O)C[C@@H]1F (single isomer, unassigned) [I-143]",< 10

# More lines, now with the values ahead:
row,DC50 [nM],Compound
1,< 10,"Cn1c(=O)n([C@H]2CCC(=O)NC2=O)c2cccc([C@@H]3CCN(C[C@H]4CC[C@H](n5cc6cc(NC(=O)c7cncc(C(F)(F)F)n7)ccc6n5)CC4)CC3(F)F)c21 (single isomer, unassigned) [I-385]"
2,> 200,"CN(C[C@H]1CC[C@H](c2cc3cc(NC(=O)c4cncc(C(F)(F)F)n4)ccn3n2)CC1)[C@@H]1CCN(c2cccc3c2n(C)c(=O)n3C2CCC(=O)NC2=O)C[C@H]1F (single isomer, unassigned) [I-291]"
3,< 10,COc1cc2nn([C@H]3CC[C@H](CN(C)[C@H]4CCN(c5cccc6c5n(C)c(=O)n6C5CCC(=O)NC5=O)C[C@H]4F)CC3)cc2cc1NC(=O)c1cccc(C(F)(F)F)n1 (some centres unmarked) [I-82]
4,< 10,"Cn1c(=O)n(C2CCC(=O)NC2=O)c2cccc([C@H]3CCN(C[C@H]4CC[C@H](n5cc6cc(NC(=O)c7cccc(C(F)(F)F)n7)c(C#N)cc6n5)CC4)C[C@@H]3F)c21 (single isomer, unassigned) [I-96]"
5,< 10,"CN(C[C@H]1CC[C@H](c2cn3cc(NC(=O)c4cncc(C(F)(F)F)n4)ccc3n2)CC1)[C@H]1CCN(c2cccc3c2n(C)c(=O)n3C2CCC(=O)NC2=O)C[C@H]1F (single isomer, unassigned) [I-285]"
6,> 200,"Cn1c(=O)n(C2CCC(=O)NC2=O)c2ccc([C@H]3CCN(C[C@H]4CC[C@H](n5cc6cc(NC(=O)c7cncc(C(F)(F)F)n7)ccc6n5)CC4)C[C@@H]3F)cc21 (single isomer, unassigned) [I-351]"
7,< 10,"Cn1c(=O)n(C2CCC(=O)NC2=O)c2cccc([C@@H]3CCN(C[C@H]4CC[C@H](n5cc6cc(NC(=O)c7cccc(C(F)(F)F)n7)c(C#N)cc6n5)CC4)C[C@H]3F)c21 (single isomer, unassigned) [I-95]"
8,< 10,Cn1c(=O)n(C2CCC(=O)NC2=O)c2cccc(C3CCN(C[C@H]4CC[C@H](n5cc6cc(NC(=O)c7cncc(C(F)(F)F)n7)ccc6n5)CC4)C(=O)C3)c21 (some centres unmarked) [I-358]
9,< 10,Cn1c(=O)n(C2CCC(=O)NC2=O)c2cccc([C@@H]3CCN(C[C@H]4CC[C@H](n5cc6cc(NC(=O)c7cncc(C#N)c7)c(C(C)(C)O)cc6n5)CC4)CC3(F)F)c21 (some centres unmarked) [I-416]
10,< 10,"Cn1c(=O)n(C2CCC(=O)NC2=O)c2cccc([C@H]3CCN(C[C@H]4CC[C@H](n5cc6cc(NC(=O)c7cccc(C(F)(F)F)n7)ccc6n5)CC4)C[C@@H]3F)c21 (single isomer, unassigned) [I-11]"
11,> 200,"CN(C[C@H]1CC[C@H](c2cc3cc(NC(=O)c4cncc(C(F)(F)F)n4)ccn3n2)CC1)[C@@H]1CCN(c2cccc3c2n(C)c(=O)n3C2CCC(=O)NC2=O)C[C@@H]1F (single isomer, unassigned) [I-211]"
12,< 10,"Cn1nc(C2CCC(=O)NC2=O)c2cccc([C@@H]3CCN(C[C@H]4CC[C@H](n5cc6cc(NC(=O)c7cncc(C(F)(F)F)n7)ccc6n5)CC4)CC3(F)F)c21 (single isomer, unassigned) [I-379]"
